Measured values from ChEMBL document CHEMBL1201862, “PubChem BioAssay data set” (2004).
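Exposure lasted 48 hours, with cells grown in 96-well plates and compounds tested at five concentrations. Here, GI50 denotes the concentration required for 50% inhibition of growth.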 The source made the active and inactive calls. Rule as the data show it: active = GI50 up to about 1.1 µM and inactive = higher.

Legend:
Test in all cases: DTP human tumour cell line panel, 48 h
[1] = test system: SF-295
[2] = test system: HCC 2998
[3] = test system: NCI-H23
[4] = test system: 786-0
[5] = test system: ACHN
[6] = test system: BT-549
[7] = test system: MDA-MB-231
[8] = test system: U-251
[9] = test system: MDA-MB-435
[10] = test system: NCI-H460
[11] = test system: OVCAR-4
[12] = test system: SK-MEL-2
[13] = test system: MDA-N
[14] = test system: SF-539
[15] = test system: SK-OV-3
[16] = test system: HCT-15
[17] = test system: NCI-H522
[18] = test system: SR
[19] = test system: TK-10
[20] = test system: LOX IMVI
[21] = test system: A498
[22] = test system: UACC-62
[23] = test system: MOLT-4
[24] = test system: M14
[25] = test system: CCRF-CEM
[26] = test system: SW-620
[27] = test system: COLO 205
[28] = test system: Malme-3M
[29] = test system: OVCAR-5
[30] = test system: PC-3
[31] = test system: K562
[32] = test system: CAKI-1
[33] = test system: HT-29
[34] = test system: A549
[35] = test system: SN12C
[36] = test system: HL-60
[37] = test system: EKVX
[38] = test system: MCF7
[39] = test system: NCI/ADR-RES
[40] = test system: UO-31
[41] = test system: UACC-257
[42] = test system: NCI-H226
[43] = test system: OVCAR-8
[44] = test system: SK-MEL-28
[45] = test system: T47D
[46] = test system: HOP-92
[47] = test system: IGROV-1
[48] = test system: HCT-116
[49] = test system: SK-MEL-5
[50] = test system: DU-145
[51] = test system: SNB-19

SMILES: C=C1CC[C@H]2C(C)=CC[C@H]3C(=C)C(=O)O[C@@H]3[C@@H]12 [EREMANTHIN]
- GI50 [1]: > 100 µM (inactive)
- GI50 [2]: > 100 µM (inactive)
- GI50 [3]: > 100 µM (inactive)
- GI50 [4]: > 100 µM (inactive)
- GI50 [5]: > 100 µM (inactive)
- GI50 [6]: > 100 µM (inactive)
- GI50 [7]: > 100 µM (inactive)
- GI50 [8]: > 100 µM (inactive)
- GI50 [9]: > 100 µM (inactive)
- GI50 [10]: > 100 µM (inactive)
- GI50 [11]: > 100 µM (inactive)
- GI50 [12]: > 100 µM (inactive)
- GI50 [13]: > 100 µM (inactive)
- GI50 [14]: > 100 µM (inactive)
- GI50 [15]: > 100 µM (inactive)
- GI50 [16]: > 100 µM
- GI50 [17]: > 100 µM (inactive)
- GI50 [18]: > 100 µM (inactive)
- GI50 [19]: > 100 µM (inactive)
- GI50 [20]: > 100 µM (inactive)
- GI50 [21]: > 100 µM (inactive)
- GI50 [22]: > 100 µM (inactive)
- GI50 [23]: > 100 µM (inactive)
- GI50 [24]: > 100 µM (inactive)
- GI50 [25]: > 100 µM (inactive)
- GI50 [26]: > 100 µM (inactive)
- GI50 [27]: 92 µM (inactive)
- GI50 [28]: > 100 µM (inactive)
- GI50 [29]: > 100 µM (inactive)
- GI50 [30]: > 100 µM (inactive)
- GI50 [31]: > 100 µM (inactive)
- GI50 [32]: > 100 µM (inactive)
- GI50 [33]: > 100 µM (inactive)
- GI50 [34]: > 100 µM (inactive)
- GI50 [35]: > 100 µM (inactive)
- GI50 [36]: > 100 µM (inactive)
- GI50 [37]: > 100 µM (inactive)
- GI50 [38]: > 100 µM (inactive)
- GI50 [39]: > 100 µM (inactive)
- GI50 [40]: > 100 µM (inactive)
- GI50 [41]: > 100 µM (inactive)
- GI50 [42]: > 100 µM (inactive)
- GI50 [43]: > 100 µM (inactive)
- GI50 [44]: > 100 µM (inactive)
- GI50 [45]: > 100 µM (inactive)
- GI50 [46]: > 100 µM (inactive)
- GI50 [47]: > 100 µM (inactive)
- GI50 [48]: > 100 µM (inactive)
- GI50 [49]: > 100 µM (inactive)
- GI50 [50]: > 100 µM (inactive)
- GI50 [51]: > 100 µM (inactive)
